Experimental data reported in the OPERA property sets (Mansouri et al. 2018).
Residues, ends and D or L forms follow the SMILES beside them. *: point of attachment. Cbz = O=C(OCc1ccccc1)*

With CNC1=NC(=O)C(=Cc2ccc([N+](=O)[O-])o2)S1 the logP was 1.16.
Work on CS(=O)(=O)Oc1ccccc1Cc1cnc(N)nc1N yielded a logP of 0.71.
In the case of Clc1cc(Cl)c(N=C2NCCN2)c(Cl)c1, the logP is reported as 2.18.
With COC(=O)C(C#N)=NNc1ccc(Cl)c(C(F)F)c1 the logP was 3.8.
With CC(C)(Cc1ccccc1)NC(=O)N(CCCl)N=O the logP was 3.73.
Compound CCCCOn1c(=O)[nH]c(C)c(Br)c1=O has a logP of 1.24.
CCCOn1c(=O)[nH]c(C)c(Br)c1=O showed a logP of 0.76.
In the case of NNC(=O)c1ccccc1I, the logP is reported as 0.47.
CCOC(=O)C(C#N)=NNc1cccc(Cl)c1 gave a logP of 3.94.
For O=[N+]([O-])c1nccn1CC(O)COc1ccccc1 (stereo not given), the logP was 1.43.
Work on Clc1ccc(N=C2NCCN2)c(Cl)c1 yielded a logP of 1.96.
In the case of CCC(C)On1c(=O)[nH]c(C)c(Br)c1=O (stereo not given), the logP is reported as 1.11.
Work on O=C1CCCN1CCOc1ccc([N+](=O)[O-])cc1 yielded a logP of 1.33.
CC(C)C(NC(=O)C(Cc1ccccc1)NC(=O)OCc1ccccc1)C(=O)O (stereo not drawn) (Cbz-Phe-Val-OH; configuration not given here) gave a logP of 2.88.
With Cc1cnc(Cc2ccc(O)cc2)s1 the logP was 2.62.
Work on S=C=Nc1ccc(N=Nc2ccccc2)cc1 yielded a logP of 5.55.
Compound FC(F)(F)c1nc2c(Cl)ccc(Cl)c2[nH]1 has a logP of 2.87.
For CC(C)Oc1ccccc1OC(=O)N(C)C, the logP was 2.06.
Compound COC12C(COC(N)=O)C3=C(C(=O)C(C)=C(Nc4cccnc4)C3=O)N1CC1NC12 (stereo not given) has a logP of 0.52.
Compound O=C1CN=C(c2ccccc2[N+](=O)[O-])c2cc([N+](=O)[O-])ccc2N1 has a logP of 1.61.
NNC(=O)c1cccc(N)c1 gave a logP of -0.86.
Work on CNP(=O)(OC)Oc1ccc(Cl)cc1Cl (stereo not given) yielded a logP of 2.41.
For OCC1OC(SCCc2ccccc2)C(O)C(O)C1O (stereo not given), the logP was -0.1.
Work on O=c1ccnc2ccccn12 yielded a logP of 0.2.
In the case of CC(C)N(N=O)C(=O)Nc1ccccc1, the logP is reported as 2.5.
Work on Nc1cc([N+](=O)[O-])cc(Cl)c1O yielded a logP of 1.53.
Compound COc1c(Cl)cc(Cc2cnc(N)nc2N)cc1Cl has a logP of 2.78.
O=NN1CCCCCCCC1 gave a logP of 2.04.
Work on Clc1cccc(Cl)c1-c1ccccc1 yielded a logP of 4.98.
In the case of CS(=O)(=O)c1cccc(NS(=O)(=O)C(F)(F)F)c1, the logP is reported as 1.85.
Compound CC1=NS(=O)(=O)c2c(Cl)cccc2N1 has a logP of 0.62.
With CC1CN(N=O)C(C)CN1N=O (stereo not given) the logP was 0.15.
With COC(CN1CCCC1)c1ccccc1 (stereo not given) the logP was 1.88.
Compound NC(=O)COCc1ccco1 has a logP of -0.11.
For CC(=O)OCC1=C(C(=O)O)N2C(=O)C(NC(=O)C(O)c3ccccc3)C2SC1 (stereo not given), the logP was -0.44.
For [O-][n+]1ccc(Cl)c2ccccc21, the logP was 1.08.
In the case of O=S1(=O)NC(c2ccco2)=Nc2ccccc21, the logP is reported as 1.06.
With CCCCCCCC[n+]1ccc(C)c(C)c1.[I-] the logP was -0.41.
O=c1c2ccccc2ncn1O gave a logP of -0.45.
Compound Cc1nnc(C)s1 has a logP of 0.03.
For N#Cc1ccc(C=CNC=O)cc1, the logP was 1.62.
Compound CN(C)/N=N/c1ccccc1C(=O)NN has a logP of 1.28.
O=NN(CCF)C(=O)NC1CCSCC1 gave a logP of 1.43.
Work on COc1ccc(Cc2cnc(N)nc2N)cc1I yielded a logP of 2.09.
For CCOC(=O)CCCCCN1C(=O)C=CC1=O, the logP was 1.5.
O=NN1CCC(=O)CC1 showed a logP of -0.47.
Compound CCCCCCCCCC[n+]1ccc(C)cc1C.[I-] has a logP of 0.54.
In the case of COP(N)(=O)Oc1cc(Cl)c(Cl)cc1Cl (stereo not given), the logP is reported as 2.53.
Compound CC(=O)Nc1cccc(OC(C)=O)c1 has a logP of 1.03.
For CC(=O)Oc1ccc(N=C2C=CC(=O)C=C2)cc1, the logP was 1.43.
With CCC(CC)(OC)C(=O)NC(N)=O the logP was 0.96.
For CSC(C)=NOC(=O)N(C)SN(C(=O)c1ccc(C)cc1)C(C)C, the logP was 3.4.
Work on Cc1[nH]c(=O)n(O)c(=O)c1Br yielded a logP of -1.12.
O=NN1CCCN(N=O)CC1 gave a logP of -0.51.
CNC1CC2OC1c1ccccc12 (stereo not given) gave a logP of 0.91.
Work on CC1CN(N=O)CCN1N=O (stereo not given) yielded a logP of -0.28.
With COc1cc(OC)c(N=C2NCCN2)cc1Cl the logP was 1.38.
Compound O=C1CN=C(c2ccccc2Br)c2cc(Br)ccc2N1 has a logP of 3.3.
For Clc1ccccc1-c1ccc(Cl)c(Cl)c1Cl, the logP was 6.11.
For CCOc1ccccc1OC(=O)NC, the logP was 1.24.
With Cn1c(C(C)(C)O)cnc1[N+](=O)[O-] the logP was 0.43.
Compound CC(C)C1OC(=O)c2ccccc21 (stereo not given) has a logP of 2.1.
For CC1=Nc2ccc(C(F)(F)F)cc2S(=O)(=O)N1, the logP was 1.51.
With Cc1ccnc2c(O)ccc(C)c12 the logP was 2.71.
O=[N+]([O-])C=Cc1ccccc1Cl gave a logP of 2.85.
Compound COc1ccccc1N1C(=O)CCC1=O has a logP of -0.02.
For CCOn1c(=O)[nH]c(C)c(Br)c1=O, the logP was 0.11.
CCN(CC)c1cc(N)[n+]([O-])c(N)n1 showed a logP of 1.16.
Compound CNC(=NC#N)NC has a logP of -0.4.
CS(=O)(=O)c1cnc2ccccc2n1 gave a logP of 0.79.
COc1ccc(Cc2ccccc2C(N)=O)cc1 showed a logP of 1.63.
CC12CCC(=O)C=C1CCC1C3CCC4(CCC(=O)O4)C3(C)CC3OC312 (stereo not given) showed a logP of 1.89.
Compound CC(=O)Nc1ccccc1C(C)=O has a logP of 1.5.
With COc1cc(C)c(Cc2cnc(N)nc2N)cc1OCc1ccccc1 the logP was 2.69.
For CON(C)C(=O)Nc1cccc(OCc2ccccc2)c1, the logP was 3.11.
Work on CC(=O)c1cccc(NS(=O)(=O)C(F)(F)F)c1 yielded a logP of 2.78.
Compound Nc1ccc(OC2OC(CO)C(O)C(O)C2O)cc1 (stereo not given) has a logP of -2.67.
For O=C1CCC(=O)N1c1ccccc1Cl, the logP was 0.56.
In the case of CCCCc1nnc(N)o1, the logP is reported as 0.65.
CCc1cc(C(=O)NN)ccn1 showed a logP of 0.12.
In the case of Cc1ccccc1N1C(=O)CCC1=O, the logP is reported as 0.29.
Work on CCNP(=O)(OC)Oc1cc(Cl)c(Cl)cc1Cl (stereo not given) yielded a logP of 3.18.
With Nc1nc(N)nc(-c2cccc(Br)c2)n1 the logP was 2.44.
In the case of Clc1ccc(-c2ccc(Cl)cc2Cl)cc1, the logP is reported as 5.62.
With COc1cccc(C2=NCC(=O)Nc3ccc(Cl)cc32)c1 the logP was 3.14.
For FC(F)(F)c1nc2c(Br)c(Br)c(Br)cc2[nH]1, the logP was 4.08.
Compound O=[N+]([O-])c1nccn1CC(O)CO (stereo not given) has a logP of -0.96.
For O=[N+]([O-])C=Cc1ccc(O)cc1, the logP was 2.12.
In the case of CCOC(=O)C(=Cc1cccc(C)c1)C(C)=O, the logP is reported as 2.8.
With CCCCCCCCCCCCCC[n+]1ccccc1C.[I-] the logP was 2.27.
In the case of CN1C(=O)OC(c2ccccc2)C1=O (stereo not given), the logP is reported as 1.06.
Compound CCCCSC(C)(C)C(N)=O has a logP of 1.81.
In the case of Cc1ncc([N+](=O)[O-])n1CC(O)CCl (stereo not given), the logP is reported as 0.6.
O=C(NO)Nc1ccc(Cl)cc1 gave a logP of 1.39.
Work on COC(=O)C(C#N)=NNc1cc(Cl)cc(Cl)c1 yielded a logP of 4.5.
CSC(C)=NOC(=O)N(C)SN(C)C(=O)c1ccc(C)cc1 gave a logP of 2.5.
Compound O=C(NC(CO)C(O)c1cccc([N+](=O)[O-])c1)C(Cl)Cl (stereo not given) has a logP of 1.15.
For NC(=O)CCCn1nnc2ccccc21, the logP was 0.37.
For CCOC(=O)C(C#N)=NNc1cc(C(F)(F)F)ccc1Cl, the logP was 4.45.
CC(C)N1CCOC(c2cccc(Cl)c2)C1 (stereo not given) gave a logP of 3.27.
For CCC(C)C(NC(C)=O)C(N)=O (stereo not given), the logP was -0.03.
NS(=O)(=O)c1nc2ccc(O)cc2s1 showed a logP of 1.13.
CN(C)C(=O)Cc1ccco1 gave a logP of 0.01.
For CC(=O)OCCOC(=O)c1ccccc1, the logP was 1.85.
CCNNC(=O)COc1ccc(Cl)cc1 gave a logP of 1.73.
In the case of CC/N=C(N)/N=C(\N)Nc1ccc(Cl)cc1, the logP is reported as 2.14.
With CC1=Nc2ccc(F)cc2S(=O)(=O)N1 the logP was 0.62.
In the case of O=C(COc1ccccc1)N1CCCCC1, the logP is reported as 1.81.
In the case of CC1(C)SC2C(NC(=O)Cc3ccc(Cl)cc3Cl)C(=O)N2C1C(=O)O (stereo not given), the logP is reported as 3.3.
For CCN1C(=O)CN=C(c2ccccc2)c2cc(Cl)ccc21, the logP was 3.21.
